Data from a compilation of properties of binary mixtures (doi:10.1080/00986445.2015.1114477).

Assay: xn = mol fraction of the nth substance listed
Details: 100 kPa

CN1CCCC1=O + CCCCCCCCn1cc[n+](C)c1.[Cl-]
x1 = 1
Details	viscosity [mPa·s]
288.15 K	1.989
298.15 K	1.679
303.15 K	1.556
308.15 K	1.441
313.15 K	1.323
323.15 K	1.148
328.15 K	1.065
333.15 K	1.029

CN1CCN(C)C1=O + CCCCCCCCn1cc[n+](C)c1.[Cl-]
viscosity [mPa·s]
Details	288.15 K	293.15 K	298.15 K	303.15 K	308.15 K	313.15 K	318.15 K	323.15 K	328.15 K	333.15 K
x2 = 0	2.368	2.139	1.945	1.76	1.616	1.491	1.381	1.28	1.195	1.117
x2 = 0.105	7.99	6.88	5.98	5.25	4.64	4.14	3.72	3.36	–	2.78
x2 = 0.2056	29.6	24	19.66	–	14	11.99	10.25	8.93	7.84	6.92
x2 = 0.3018	–	67.9	53.2	42.4	34.3	28.2	23.45	19.75	16.69	14.54
x2 = 0.3991	217	–	118.5	90.5	70.8	56.4	45.7	37.5	–	26.3
x2 = 0.4964	–	420	295	–	170.9	–	–	–	63.2	51.6
x2 = 0.6016	1500	990	669	467	335	245	196	149.3	116	91.4
x2 = 0.7007	–	1973	1290	874	608	431	315	251	191	–
x2 = 0.7994	–	–	2473	1632	–	–	551	404	301	229

CN1CCCC1=O + CCCCCC[n+]1ccn(C)c1.[Cl-]
x1 = 1
Details	viscosity [mPa·s]
288.15 K	1.989
293.15 K	1.853
298.15 K	1.679
303.15 K	1.556
308.15 K	1.441
313.15 K	1.323
318.15 K	1.259
323.15 K	1.148
328.15 K	1.065
333.15 K	1.029

CN1CCN(C)C1=O + CCCCCC[n+]1ccn(C)c1.[Cl-]
viscosity [mPa·s]
Details	288.15 K	293.15 K	298.15 K	303.15 K	308.15 K	313.15 K	318.15 K	323.15 K	328.15 K	333.15 K
x2 = 0	–	2.139	1.945	1.76	–	1.491	1.381	1.28	–	1.117
x2 = 0.1007	–	5.49	4.82	4.26	3.8	3.41	3.08	–	2.55	2.337
x2 = 0.1999	18.72	15.59	13.12	–	–	7.42	6.47	5.7	5.07	4.54
x2 = 0.2985	49.9	39.2	31.2	25.4	20.72	17.34	14.87	–	11.09	–
x2 = 0.3856	124.2	92.5	71.6	55.9	–	35.7	29.2	24.3	20.29	17.2
x2 = 0.4985	301	214	155.5	116.4	88.9	69.2	54.9	–	37.1	29.9
x2 = 0.6069	707	477	332	241	185	138.5	106.2	82.7	64.8	52.5
x2 = 0.6969	1575	1029	694	478	338	246	–	137.9	106.7	83.8
x2 = 0.7981	–	2308	1473	978	666	468	335	247	184	141.2

CCCCCCCCn1cc[n+](C)c1.[Cl-] + CN1CCCC1=O
viscosity [mPa·s]
Details	288.15 K	293.15 K	298.15 K	303.15 K	308.15 K	313.15 K	318.15 K	323.15 K	328.15 K	333.15 K
x2 = 0.21	–	2103	1299	878	619	442	–	–	–	137.7
x2 = 0.3221	1176	–	–	384	279	208	156.4	120.6	94.4	76.3
x2 = 0.43	560	390	279	207	154.3	117.6	91.2	72	57.7	46.7
x2 = 0.5321	204	149.8	112.3	86.1	67.1	53.3	–	35.6	29.5	24.9
x2 = 0.6343	86	66.1	51.9	41.4	33.5	27.6	22.98	19	16.2	14.09
x2 = 0.7195	32.3	26.2	21.09	17.68	–	12.7	10.97	9.55	8.38	7.41
x2 = 0.8143	12.78	10.86	9.32	8.08	7.07	6.24	–	–	4.46	4.04
x2 = 0.9085	5.24	4.63	4.13	3.71	–	3.05	2.79	2.57	2.377	2.211

CCCCCC[n+]1ccn(C)c1.[Cl-] + CN1CCCC1=O
viscosity [mPa·s]
Details	288.15 K	293.15 K	298.15 K	303.15 K	308.15 K	313.15 K	318.15 K	323.15 K	328.15 K	333.15 K
x2 = 0.2211	2552	1609	–	699	–	342	247	186	140.1	109.4
x2 = 0.3181	1037	687	–	329	239	176	132.3	–	79.8	63.8
x2 = 0.4223	406	–	207	–	115.1	87.7	68.5	–	–	36.7
x2 = 0.5271	167.3	123.1	–	71.4	55.9	45.3	36.7	30.2	25.1	21.19
x2 = 0.6327	63.8	49.7	39.4	31.7	26	–	17.7	15.13	13.09	11.35
x2 = 0.718	29.2	23.7	–	16.08	–	–	10.04	8.75	–	6.77
x2 = 0.8139	11.44	9.86	–	7.37	–	5.71	5.08	4.55	4.07	3.68
x2 = 0.9083	4.69	4.16	3.72	3.35	3.04	–	2.55	2.353	2.185	–
